Entries after “also recorded” stand apart in the source; their conditions may differ.

The subject of series [1] is lysyl-tRNA synthetase (KRS). As to the kind of experiment: KRS expression after shRNA transfection (Western blotting). The conditions noted are these: HCT116 cells transfected with KRS shRNA plasmid DNA. In kind it is cell-based, homo sapiens. An excerpt:
Particularly, the cell line wherein KRS expression was suppressed was constructed by transfecting cells with lysyl-tRNA synthetase MISSION® shRNA plasmid DNA (Sigma, USA). At this time, the said KRS was homo sapiens lysyl-tRNA synthetase (transcript variant 1, mRNA sequence: NM_001130089.1). This KRS includes […] long exon 1˜15. Among the purchased KRS shRNA plasmid DNAs, shKRS-0 (SEQ. ID. NO: 1) targets 1581˜1604 bp (exon 12) of KRS, shRKS-1 (SEQ. ID. NO: 2) targets 437˜459 bp (exon 3˜4), shKRS-2 (SEQ. ID. NO: 3) targets 911˜933 bp (exon 7), and shKRS-5 (SEQ. ID. NO: 4) targets 1071˜1092 bp (exon 8). TRC1.5-pLK0.1-puro was used as the expression vector. Selection was performed by using puromycin to establish stable cell lines.
Western blotting was performed to investigate whether or not the KRS expression was inhibited in the spheroidically aggregated cells of the KRS knock-out cell lines constructed by the method of Example <2-1>.
A general note: In western blotting, separated proteins are transferred to a membrane and probed.

The subject of another series is HCT116 cells. As to the kind of experiment: EMT marker protein expression in two-dimensional culture treated with cytokines (Western blotting). In kind it is cell-based, human. The conditions noted are these: 10% FBS. On the procedure:
Particularly, the cell line cultured in a two-dimensional environment with 10% serum was washed with PBS twice, followed by reaction at 4° C. for 15 minutes in 200 μl of lysis buffer [50 mM Tris-HCl, pH 7.4, 1% NP-40, 0.25% sodium deoxycholate, 150 mM NaCl, 1 mM EDTA] supplemented with SDS, Na3O4V, and protease inhibitor cocktails (GenDepot, USA). The cells were collected and centrifuged at 4° C. at 13000×g for 30 minutes. The supernatant was transferred in a new microcentrifuge tube, followed by protein quantification using BCA reagent (Thermo Scientifics, USA). To the quantified sample was added 4× sample buffer [100% glycerol 4 ml, Tris-HCl, pH 6.8, 2.4 ml, SDS 0.8 g, bromophenol blue 4 mg, β-mercaptoethanol 0.4 ml, H2O 3.1 ml (total 10 Ml)], which was boiled at 100° C. for 5 minutes. The prepared sample was treated with the primary antibodies of ZO-1 (Zymed, USA), β-catenin (Santa Cruz, USA), and E-cadherin by the same manner as described in Example <1-2>.
To observe the surrounding microenvironmental factors in a two-dimensional culture environment over the time, the culture fluid supplemented with 10% FBS was additionally treated with such cytokines as TNFα and TGFβ, followed by investigation of the expression of the epithelial marker protein that can be an index for cell-cell adhesion by the same manner as described in Example <3-1>.

In series [2] the test system is HCT116 spheroidically aggregated cells. As to the kind of experiment: Dissemination of cells from spheroidically aggregated cells in three-dimensional collagen gel (time-lapse microscope). In kind it is cell-based, human. Here is the method:
Particularly, 2.5 mg/Ml of collagen containing cells was loaded in the magnetic 4-well chamber (Live Cell Instrument, Korea) for the culture system of time-lapse microscope, and the collagen was hardened in a 37° C. incubator for 30 minutes. When the collagen was fully solidified, PRMI-1640 supplemented with 10% FBS was added thereto. The magnetic chamber containing three-dimensional collagen gel and its corresponding adaptor were placed on the time-lapse microscope, followed by setting the multi-position. […] 5% CO2 incubator. Culture medium was added thereto every 6 hours in order for the collagen not to be dried. At this time, it is important to maintain the focus not to be changed. […]
As confirmed in the result of Example 14, when the HCT116 parental cells were treated with TGFβ1, the dissemination of cells from the spheroidically aggregated cells and migration thereof were observed. When the KRS knock-out cell line was treated with TGFβ1, the dissemination of cells was not observed. […] When the extracellular signal-regulated kinase (ERKs) inhibitor U0126 was treated to the HCT116 parental cells, it was presumed to be negative effect on the dissemination and migration of cells. To verify above, 50 μM of U0126, the ERKs inhibitor, was treated to the cell line, followed by observation of cell dissemination and migration by real-time live imaging of the spheroidically aggregated cells.

Where [3] appears, read: TGFβ1, normal HCT116 and KRS over-expressing cell line.

Regarding “shKRS-2: KRS MISSION shRNA plasmid DNA (Sigma), SEQ. ID. NO: 3, targets 911˜933 bp (exon 7) of KRS (DNA CCGGCCAGAGATACTTGGACTTGATCTCGAGATCAAGTCCAAGTATCTCTGGTTTTTG)”, the KRS expression entry in series [1] is “KRS inhibiting effect”.
For the substance “shKRS-5: KRS MISSION shRNA plasmid DNA (Sigma), SEQ. ID. NO: 4, targets 1071˜1092 bp (exon 8) of KRS (DNA CCGGGCCTTTCATCACTTATCACAACTCGAGTTGTGATAAGTGATGAAAGGCTTTTTG)”, the KRS expression entry in series [1] was “KRS inhibiting effect”.
For the substance “TGFβ1: the most representative multifunctional and EMT inducing cytokine”, in the series with HCT116 cells (KRS knock-out cell line), the “epithelial marker protein like occludin (ZO-1 and occludin) expression” value is “increase; also recorded: up-regulated”; the fibronectin expression result is recorded as “reduced; also recorded: down-regulated; also recorded: decrease”. Also, in the series on HCT116 cells (setting [3]), the fibronectin expression result was “up-regulated” and the “occludin or ZO-1 expression” value is reported as “down-regulated”. For the same substance, the “formation of invasive protrusion” value in series [2] (TGFβ1, 36 hours, HCT116 parental cells and KRS over-expressing cell lines) is reported as “not observed”. Besides, the “dissemination of cells from spheroid cells” value in series [2] (TGFβ1, HCT116 parental cells and KRS over-expressing cell lines) is listed as “observed”. Moreover, in series [2] (TGFβ1, KRS knock-out cell line), the cell migration entry is listed as “significantly decreased”; the dissemination of cells result was “not and not observed”.
On to “shKRS-0: KRS MISSION shRNA plasmid DNA (Sigma), SEQ. ID. NO: 1, targets 1581˜1604 bp (exon 12) of KRS (DNA CCGGCCTGGAAGTGACTTGCATCAACTCGAGTTGATGCAAGTCACTTCCAGGTTTTTG)”, for which the KRS expression result in series [1] is listed as “KRS inhibiting effect”.
As for TNFα, in the series on HCT116 cells (KRS knock-out cell line), the “epithelial marker protein like occludin (ZO-1 and occludin) expression” value was “increased”; the fibronectin expression entry is “reduced”. In the series with HCT116 cells (TNFα, normal HCT116 and KRS over-expressing cell line), the “expression of the epithelial marker protein” value is “not changed”. For the same substance, the “formation of invasive protrusion” value in series [2] (TNFα, 36 hours, HCT116 parental cells, KRS over-expressing cell line and KRS knock-out cell line) is given as “increased”. Moreover, the “dissemination of cells from the cell mass and cell migration” value in series [2] (TNFα, 36 hours, parental, KRS over-expressing and KRS knock-out cell lines (regardless of KRS expression)) was “observed”.

For the origin of these results see patent US20160146815A1, “METHOD FOR SCREEING CANCER METASTASIS INHIBITOR USING CULTURE OF CELLS OR SPHEROIDICALLY AGGREGATED CELLS IN WHICH LYSYL-TRNA SYNTHETASE IS REGULATED TO BE EXPRESSED OR UNEXPRESSED” (Medicinal Bioconvergence Research Center, priority 2013, published 2016).
